{
  "source": "patent US8791128B2",
  "about": "“Compositions for treating or delaying the onset of hair loss” (University of Central Florida Research Foundation, Inc., priority 2008, dated 2014)",
  "key": {"[1]": {"test_system": "cells in the brain of rodents", "experiment": "NBI-18 injections: cell proliferation and neurogenesis in rodent brain", "format": "in vivo"}, "[2]": {"experiment": "Extraction of NBI-18 from epidermis of treated mice", "format": "in vivo", "settings": "24 hours post-injection", "excerpt": "(§1) U.S. Pat. Nos. 4,959,368; 5,976,523. One derivative of interest is heterocyclic pyrimidine molecule referred to herein as ‘NBI-18’ (2-piperadino-6-methyl-5-oxo-5,6-dihydro-(7H) pyrrolo-[3,4-d]pyrimidine maleate; Mwt. 349.54). […] U.S. Patent Pub 20030139410. The mechanism of action of NBI-18 is not known, although some evidence implies the activation of the MAPK (mitogen activated protein kinase) pathway, a cascade that is also activated by peptide growth factors. […] NBI-18 has been tested in isolated animal models—axon growth in mice and muscle regeneration in rats—with no evidence of mechanistic details relating to function. Mechanism of action studies to find the drug target, are planned as part of our ongoing research. Upon learning about the availability of NBI-18 family of molecules, it was hypothesized that the compounds may be involved in the proliferation process of Stem Cells and the inventors decided to examine the possible implication for genesis of Keratinocyte Stem Cells (KSCs) or possibly the human bulge cells which provide the niche for KSCs, in animal models."}, "hair re-growth": {"test_system": "hair re-growth", "experiment": "Topical application study: hair re-growth on shaved skin", "format": "in vivo, C57 BL/6 mice", "settings": "topical 0.75, 1.5, 3.0 mg/ml, 5 consecutive days", "description": "(§2) Based on the inventors' realizations, the decision was made to test NBI-18 in a topical application study to induce the genesis or re-growth of hair. Varying doses of NBI-18 [0.75 mg/ml, 1.5 mg/ml, 3.0 mg/ml, and control (50% ETOH)] was delivered in 5 ul drops to shaved locations on the back of C57 BL/6 mice. The varying doses were given 5 consecutive days and on day 4 and 5 BrdU (100 mg/kg, ip) was injected. […] NBI-18 has proven to produce a desired affect in rodent models that show a predominant re-growth of hair using the topical application of the small molecular pyrimidine compound known as NBI-18. We are hypothesizing that NBI-18 treatment will lead to greater cytogenesis and eventually lead to a commercial product that will eradicate hair loss. These studies will be further described in the Examples provided below.\nB. Four C57 BL/6 mice were selected for the topical application study of NBI-18. The mice were prepped by shaving four specific locations lateral/dorsal in a circular pattern. NBI-18 was delivered to the specified areas (right, counterclockwise from lowest to highest dose, then control) in concentrations of 0.75 mg/ml, 1.5 mg/ml, and 3.0 mg/ml, and control (50% ETOH) respectively. The solutions were applied to the center of these locations in a 5 ul dose for 5 consecutive days and on days 4 and 5 BrdU (100 mg/K, ip) was injected. […]"}, "[3]": {"experiment": "Toxicity study (i.p., 7 days; rotarod, open field, postural reflex, forelimb placing)", "format": "in vivo, C57 BL/6 mice", "settings": "100, 300, 1000 mg/kg/day i.p. for 7 days", "description": "A total of 16 male C57 BL/6 mice (12 weeks old) weighing 25-30 g were used to investigate the toxicity of NBI-18. The mice were maintained on a 12-h light/dark cycle, and had free access to food and water through the study period. These animals were housed four per cage. In this study, animals were divided into four groups (four/group). Acute toxicity has been tested up to 1000 mg/kg. NBI-18 (0, 100, 300,1000 mg/kg/day, i.p.) was injected for 7 days and for the control group, the same volume of vehicle saline was injected. Bromodeoxyuridine (BrdU)(Sigma Chemical Co., St Louis, Mo.), was injected (100 mg/kg/day, i.p.) for the last three days (days 5-7). For behavioral testing, rotarod and open field tests were used to examine balance and coordination of mice before, during and after NBI-18 injection. Also, postural reflex and forelimb placing tests were performed to evaluate the neurological functions for the animals. All the animals were anesthetized with pentobarbital (i.p.) 48 h after the last BrdU injection and immediately per fused with 4% paraformaldehyde fixative. The brains were immediately dissected, post fixed for 24 h and processed for immunohistochemistry."}, "rodent cortical neurons": {"test_system": "rodent cortical neurons", "settings": "cited from earlier work"}, "[4]": {"test_system": "BrdU positive cells of the epidermis", "experiment": "Topical application study: BrdU immunohistochemistry of epidermis", "format": "in vivo, C57 BL/6 mice", "description": "as §2\nIn this study, the inventors determined a dose range where keratinogenesis occurs in healthy mice to help us learn about the fate of newly formed cells within the epidermis. […] In order for us to eliminate unnecessary anesthesia, our vehicle of delivery was 50% Ethanol (ETOH). NBI-18 was suspended in 50% ETOH using the concentrations of 0.75 mg/ml, 1.5 mg/ml, 3.0 mg/ml, and control (50% ETOH) respectively.\nA. Two C57 BL/6 mice were selected for the topical application study of NBI-18. The mice were prepped by shaving four specific locations lateral/dorsal in a circular pattern. NBI-18 was delivered to the specified areas (right, counterclockwise from lowest to highest dose, then control) in concentrations of 1.5 mg/ml, 3.0 mg/ml, 6.0 mg/ml and control (50% ETOH) respectively. The solutions were applied to the center of these locations in a 5 ul dose for 5 consecutive days and on days 4 and 5 BrdU (100 mg/K, ip) was injected. On day 7 the mice were euthanized using a high dose pentobarbital (70 mg/kg, ip) and the treated epidermis was dissected and placed into 4% paraformaldehyde fixative for 48 hour\nImmunohistochemistry of epidermis. Epidermal sections were mounted into square embedding molds with freezing medium (O.C.T. compound, Tissue Tek), sliced in 20 uM sections then mounted onto adhesive coated slides (Instrumedics, Inc) via tape transfer method. Slides were washed with PBS then placed in 2NHCL for 30 minutes to […]. Slides were then washed again with PBS, then blocked using 3% Donkey serum in PBST for 1 hour. Primary anti-body suspended in blocking solution used was anti-BrdU (sigma) at 1:1000 overnight in 4C. Slide were washed 3× then placed in secondary anti-body suspended in blocking solution, FITC (Jackson ImmunoResearch) at 1:500 for 2 hours at room temperature then washed with PBS. Slides were mounted using Vectashield with Dapi. […]"}, "[5]": {"experiment": "Ames test by a third party", "settings": "third party company", "excerpt": "as §1"}, "[6]": {"experiment": "Absorption and half-life in rodents (HPLC analysis)", "format": "in vivo, rat", "excerpt": "as §1"}, "human NSCs": {"test_system": "human NSCs", "experiment": "Proliferation of human NSCs in culture", "format": "cell-based"}, "[7]": {"settings": "daily injections for five days, rodents"}},
  "note": "Entries after “also recorded” stand apart in the source; their conditions may differ.",
  "data": [
    {"molecule": "CN1Cc2nc(N3CCCCC3)ncc2C1=O.O=C(O)/C=C\\C(=O)O", "note": "[NBI-18, 2-piperadino-6-methyl-5-oxo-5,6-dihydro-(7H) pyrrolo-[3,4-d]pyrimidine maleate]", "values": [
      {"measurement": "dose dependence of the increase in proliferation", "setting": "[1]; animal studies", "value": "dose dependent"},
      {"measurement": "neurogenesis", "setting": "[1]; daily injections for five days, at four weeks, young and aged rodents", "value": "stable neurogenesis"},
      {"measurement": "pathological effects", "setting": "[1]; [7]", "value": "no discernible pathological effects"},
      {"measurement": "symptoms of toxicity", "setting": "[1]; [7]", "value": "no symptoms of toxicity"},
      {"measurement": "proliferation of cells in the brain", "setting": "[1]; injections 5 mg/kg, rodents", "value": "increased proliferation"},
      {"measurement": "presence in epidermis", "setting": "[2]", "value": "can be extracted"},
      {"measurement": "time to re-growth of hair near to its original length", "setting": "hair re-growth", "value": "≤ 7", "unit": "days"},
      {"measurement": "hair re-growth in treated areas compared to control areas", "setting": "hair re-growth; 5 ul, shaved skin", "value": "visibly complete hair growth; also recorded: visible re-growth of hair; also recorded: actual hair re-growth"},
      {"measurement": "behavioral or neurological changes", "setting": "[3]", "value": "no immediate behavioral or neurological changes"},
      {"measurement": "symptoms of toxicity", "setting": "[3]", "value": "no symptoms of toxicity"},
      {"measurement": "rate of apoptosis", "setting": "rodent cortical neurons; TUNEL assays", "value": "reducing the rate of apoptosis"},
      {"measurement": "activity in neuron culture", "setting": "rodent cortical neurons; bFGF, nerve growth factor, EGF, insulin-like growth factor", "value": "active primarily in the presence of various growth factors"},
      {"measurement": "survival of rodent cortical neurons", "setting": "rodent cortical neurons", "value": "promoted the survival"},
      {"measurement": "newly developed (BrdU) cells versus control", "setting": "[4]; Example 3A, topical 1.5, 3.0, 6.0 mg/ml, 5 ul, 5 days, FIG. 1", "value": "mass increases of newly developed cells"},
      {"measurement": "migration pattern of new cells", "setting": "[4]; Example 3A, topical 1.5, 3.0, 6.0 mg/ml, FIG. 1", "value": "alignment towards migration patterns"},
      {"measurement": "dose dependence of the elevation in BrdU positive stained cells", "setting": "[4]; topical 0.75, 1.5, 3.0 mg/ml in 50% ETOH", "value": "did not demonstrate a dose dependent increase"},
      {"measurement": "BrdU positive (proliferating) cells in comparison to control", "setting": "[4]; topical 0.75, 1.5, 3.0 mg/ml in 50% ETOH, 5 ul, 5 consecutive days", "value": "abundant increase in proliferating cells; also recorded: vast increase; also recorded: dramatic elevation; also recorded: some varying levels of increase; also recorded: increases the number of BrdU positive cells"},
      {"measurement": "mutagenicity", "setting": "[5]", "value": "not mutagenic; also recorded: no mutagenesis or toxicity"},
      {"measurement": "absorption", "setting": "[6]; after intraperitoneal as well as oral administration, rodent studies", "value": "absorbed well"},
      {"measurement": "oral bioavailability", "setting": "[6]; general statement", "value": "orally bioavailability"},
      {"measurement": "t1/2", "setting": "[6]; rat circulation, HPLC analysis", "value": "> 4", "unit": "h"},
      {"measurement": "proliferation of human NSCs", "setting": "human NSCs", "value": "stimulate the proliferation"}
    ]}
  ]
}
